These results are taken from patent US6610502B1, “Compound 2-amino-3-[2-(α-mannopyranosyl)indol-3-yl]propionic acid, process for preparing the same, and method for inspecting function of living body with the novel compound” (Kyowa Medex Co., Ltd., priority 1997, dated 2003).

The data set in a line: Quantitation of the compound in amniotic fluid by high performance liquid chromatography (Example 5). The data set is classed as in vivo, human. The method, then: Standard solution of 2-amino-3-[2-(α-mannopyranosyl)indole-3-yl]propionic acid obtained in Example 1 above was prepared. Next, 350 μl of the standard solution was added to 500 μl of 0.1N hydrochloric acid containing 1% vitamin C, mixed with 50 μl of 40 μM N-methyl serotonin as an internal standard then 100 μl of 60% perchloric acid, and centrifuged at 3000 rpm at 4° C. The supernatant was filtered through a 0.22 μm filter to obtain a filtrate.
The filtrate was subjected to high performance liquid chromatography under the following conditions:
Amniotic fluids from pregnant healthy persons and pregnant patients with uremic syndrome staying in hospital were quantitated for the compound of the present invention. Amniotic fluids were collected from 21 healthy persons (21-41 weeks old) and 9 pregnant patients with uremic syndrome (24-49 weeks old), and assayed for the compound of the present invention. The quantitation was performed in the same manner as that of Example 2 except that amniotic fluids were used instead of the standard solution. The results are shown in FIG. 4 in which Δ and ● show the healthy persons and the pregnant patients with uremic syndrome, respectively. As shown in this figure, 353.0 ng/ml (SD 120.1) was obtained for the healthy persons while […] for the pregnant patients with uremic syndrome.

With `NC(Cc1c([C@H]2O[C@H](CO)[C@@H](O)[C@H](O)[C@@H]2O)[nH]c2ccccc12)C(=O)O` (stereo partly drawn) [the present compound, 2-amino-3-[2-(α-mannopyranosyl)indole-3-yl]propionic acid], the “range of levels in amniotic fluids from 99% of subjects” value is, setting by setting: (healthy persons (n=21)) 113 to 593 ng/mL; (pregnant patients with uremic syndrome (n=9)) 675 to 2147 ng/mL. Moreover, the “level in amniotic fluids” value is 0.353 µg/mL (pregnant healthy persons (n=21), SD 120.1) and 0.4107 µg/mL (pregnant patients with uremic syndrome (n=9), SD 367.9).
